The values below come from patent publication US9637493B2, “Substituted pyrrolopyrimidines as HDM2 inhibitors” (Merck Sharp & Dohme Corp., priority 2012, dated 2017).

Structures are written as SMILES. pIC50: −log10 of the molar value.

The target in the assay is HDM2 (Homo sapiens (Human), UniProt Q00987). The experiment in a line: HDM2 FRET assay (inhibition of p53 peptide binding to HDM2). To be noted: truncated HDM2 residues 17 to 125, 0.5 nM; FITC labeled 8-mer peptide 3 nM; two hour incubation at room temperature. The method, then: Methods: An HDM2 FRET assay was developed to assess the compounds' inhibitory activity towards binding of p53 protein. […] (containing p53 binding surface, Science (1994) 265, 346-355), with N-terminal His and Thioredoxin tag was generated in pET32a expression vector and expressed in E. coli strain BL21(DE3)Rosetta. Protein was purified using Ni-affinity chromatography, followed by size exclusion chromatography using Superdex 75 26/60 column. […] After two hour incubation at room temperature in a humidified chamber plates were read on EnVision plate reader with the following settings: excitation: UV, […], two emission filters: 520 nm and 495 nm respectively. […] IC50 DETERMINATIONS: Dose-response curves were plotted from the inhibition data, from 10 point serial dilutions of inhibitory compounds. Concentration of compound was plotted against em520/Cem495 ratio signal. To generate IC50 values, the dose-response curves were fitted to a standard sigmoidal curve and IC50 values were derived by nonlinear regression analysis.
HDM2, sequence (Q00987 17-125): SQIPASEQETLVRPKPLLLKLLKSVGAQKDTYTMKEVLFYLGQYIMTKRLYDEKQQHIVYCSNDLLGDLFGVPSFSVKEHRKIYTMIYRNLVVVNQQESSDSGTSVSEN
The pIC50 is −log10 of the IC50, conventionally taken in molar units. A lower pIC50 goes with a high IC50. On to `CC(C)Cc1cn(C[C@H]2CC[C@H](C)CC2)c2c(-c3cncc(Cl)c3)nc(-c3noc(=O)[nH]3)nc12` [Example 5.8, 3-[4-(5-chloropyridin-3-yl)-5-[(trans-4-methylcyclohexyl)methyl]-7-(2-methylpropyl)-5H-pyrrolo[3,2-d]pyrimidin-2-yl]-1,2,4-oxadiazol-5(4H)-one], for which the negative-log IC50 (pIC50) was 7.46. With `C[C@H]1CC[C@H](Cn2cc(CCc3cccnc3)c3nc(C(=O)O)nc(-c4cncc(Cl)c4)c32)CC1` [Example 6.1, 4-(5-chloropyridin-3-yl)-5-[(trans-4-methylcyclohexyl)methyl]-7-(2-pyridin-3-ylethyl)-5H-pyrrolo[3,2-d]pyrimidine-2-carboxylic acid], the pIC50 was 7.33. This pIC50 and that of the compound before are within 0.2 log units of each other. For `C[C@H]1CC[C@H](Cn2cc(CCc3cccnc3)c3nc(-c4noc(=O)[nH]4)nc(-c4cncc(Cl)c4)c32)CC1` [Example 6.2, 3-[4-(5-chloropyridin-3-yl)-5-[(trans-4-methylcyclohexyl)methyl]-7-(2-pyridin-3-ylethyl)-5H-pyrrolo[3,2-d]pyrimidin-2-yl]-1,2,4-oxadiazol-5(4H)-one] the value was 7.89; for `C[C@H]1CC[C@H](Cn2cc(Cc3cccnc3)c3nc(-c4noc(=O)[nH]4)nc(-c4cncc(Cl)c4)c32)CC1` [Example 7.1, 3-[4-(5-chloropyridin-3-yl)-5-[(trans-4-methylcyclohexyl)methyl]-7-(pyridin-3-ylmethyl)-5H-pyrrolo[3,2-d]pyrimidin-2-yl]-1,2,4-oxadiazol-5(4H)-one], 7.28. For `C[C@H]1CC[C@H](Cn2c(C(F)c3ccccc3F)cc3nc(-c4noc(=O)[nH]4)nc(-c4cncc(Cl)c4)c32)CC1` (stereo partly drawn) [Example 8.2, 3-{4-(5-chloropyridin-3-yl)-6-[fluoro(2-fluorophenyl)methyl]-5-[(trans-4-methylcyclohexyl)methyl]-5H-pyrrolo[3,2-d]pyrimidin-2-yl}-1,2,4-oxadiazol-5(4H)-one] the value was 8.70.
